PubChem BioAssay (NCI)
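Following 48 hours of exposure in 96-well plates, responses at five concentrations were used to interpolate endpoints linearly. TGI: concentration producing complete growth inhibition.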

Assays:
Assay in all cases: inhibition of tumour cell growth, NCI panel, 48 h
UACC-62 melanoma = tested on: UACC-62 melanoma
HS 578T breast = tested on: HS 578T breast
ACHN renal = tested on: ACHN renal
M14 melanoma = tested on: M14 melanoma
LOX IMVI melanoma = tested on: LOX IMVI melanoma
SNB-75 CNS = tested on: SNB-75 CNS
A498 renal = tested on: A498 renal
786-0 renal = tested on: 786-0 renal
A549 NSCLC = tested on: A549 NSCLC
EKVX NSCLC = tested on: EKVX NSCLC
K-562 leukemia = tested on: K-562 leukemia
SK-OV-3 ovarian = tested on: SK-OV-3 ovarian
DU-145 prostate = tested on: DU-145 prostate
UACC-257 melanoma = tested on: UACC-257 melanoma
RXF 393 renal = tested on: RXF 393 renal
NCI-H226 lung = tested on: NCI-H226 lung
SR leukemia = tested on: SR leukemia
RPMI-8226 leukemia = tested on: RPMI-8226 leukemia

Structure (SMILES)	TGI (UACC-62 melanoma)	TGI (HS 578T breast)	TGI (ACHN renal)	TGI (M14 melanoma)	TGI (LOX IMVI melanoma)	TGI (SNB-75 CNS)	TGI (A498 renal)	TGI (786-0 renal)	TGI (A549 NSCLC)	TGI (EKVX NSCLC)	TGI (K-562 leukemia)	TGI (SK-OV-3 ovarian)	TGI (DU-145 prostate)	TGI (UACC-257 melanoma)	TGI (RXF 393 renal)	TGI (NCI-H226 lung)	TGI (SR leukemia)	TGI (RPMI-8226 leukemia)
COC(=O)c1cc(C)ccc1C1CN=NC12Cc1ccc(C)cc1C2=O (stereo not given)	> 100 µM	> 100 µM	> 100 µM	> 100 µM	> 100 µM	> 100 µM	91.3 µM	> 100 µM	> 100 µM	> 100 µM	> 100 µM	> 100 µM	> 100 µM	> 100 µM	> 100 µM	> 100 µM		
O=C(O)c1ccccc1/C=N/NC1=NCCN1	> 100 µM	> 100 µM	> 100 µM	> 100 µM	> 100 µM	> 100 µM	> 100 µM	> 100 µM	> 100 µM	> 100 µM	> 100 µM	> 100 µM		> 100 µM	> 100 µM	> 100 µM	> 100 µM	> 100 µM
O=C1N[C@H]2c3c(Cl)sc(Cl)c3[C@@H](O)[C@H]2O1	> 100 µM		> 100 µM	> 100 µM		> 100 µM	> 100 µM	> 100 µM	> 100 µM	> 100 µM	> 100 µM	> 100 µM	> 100 µM	> 100 µM	> 100 µM		> 100 µM	> 100 µM
CC(=O)Oc1cc(Cl)c(C)c2c1[C@H]1CC[C@]3(C)[C@@H](OC(C)=O)CC[C@H]3[C@@H]1CC2	> 100 µM	> 100 µM	> 100 µM	> 100 µM	> 100 µM	> 100 µM	> 100 µM	> 100 µM	> 100 µM	> 100 µM	> 100 µM		> 100 µM	> 100 µM	> 100 µM	> 100 µM		> 100 µM
COc1ccccc1NC(=S)Nc1cc(C)cc(C)n1	> 100 µM	> 100 µM	> 100 µM	> 100 µM	> 100 µM	> 100 µM	> 100 µM	> 100 µM	> 100 µM	> 100 µM	> 100 µM	> 100 µM	> 100 µM	> 100 µM	> 100 µM	> 100 µM		> 100 µM
Oc1c2cc(Cl)cc1COCc1cc(Cl)cc(c1O)COCc1cc(Cl)cc(c1O)COC2	> 100 µM		> 100 µM	64.7 µM	> 100 µM	63.4 µM	> 100 µM	37.7 µM	> 100 µM	> 100 µM	> 100 µM	> 100 µM	> 100 µM	> 100 µM	> 100 µM	> 100 µM	> 100 µM	> 100 µM
Cc1ccc(S(=O)(=O)c2ccsc2NC(=O)C(F)(F)F)cc1	> 100 µM	> 100 µM	> 100 µM	> 100 µM	> 100 µM	77.8 µM	> 100 µM	> 100 µM	> 100 µM	> 100 µM		> 100 µM	> 100 µM	> 100 µM		> 100 µM		31 µM
Cc1c(C)c(C)n(C2OC(CO)C(O)C(O)C2O)c(=S)c1C#N (stereo not given)	> 100 µM		> 100 µM	> 100 µM	> 100 µM	> 100 µM	> 100 µM	> 100 µM	> 100 µM	> 100 µM	> 100 µM	> 100 µM	> 100 µM	> 100 µM	> 100 µM	> 100 µM	> 100 µM	
CCOC(=O)CCCNC(=O)CCCCC(=O)N(C)C	> 100 µM	> 100 µM	> 100 µM	> 100 µM	> 100 µM		> 100 µM	> 100 µM	> 100 µM	> 100 µM	> 100 µM	> 100 µM	> 100 µM	> 100 µM		> 100 µM		> 100 µM
O=C(Cn1c2c(c3ccccc31)CCCC2)N1CCCC1	> 100 µM	87.2 µM	> 100 µM	> 100 µM	> 100 µM		> 100 µM	> 100 µM	> 100 µM	> 100 µM		> 100 µM		> 100 µM			> 100 µM	> 100 µM
c1ccc2c(c1)CC1=C(O2)c2ccccc2OC1	92.8 µM		> 100 µM	> 100 µM	40.2 µM		> 100 µM	32.6 µM	> 100 µM	45.7 µM		> 100 µM	> 100 µM	> 100 µM		> 100 µM	> 100 µM	67.3 µM
N#CC12CNCC1CN=N2 (stereo not given)	> 100 µM		> 100 µM		> 100 µM	> 100 µM	> 100 µM	> 100 µM	> 100 µM	> 100 µM	> 100 µM		> 100 µM	> 100 µM	> 100 µM	> 100 µM	> 100 µM	
OC1(c2ccccc2)C2CCN(CC2)C1CN1CCOCC1 (stereo not given)	> 100 µM		> 100 µM	> 100 µM	> 100 µM	> 100 µM	> 100 µM	> 100 µM	> 100 µM	> 100 µM	> 100 µM	> 100 µM	> 100 µM	> 100 µM	> 100 µM	> 100 µM	> 100 µM	> 100 µM
CCN(CC)CCn1nc(N)c2nc3ccccc3nc21	> 100 µM	> 100 µM	> 100 µM	> 100 µM	> 100 µM	> 100 µM	> 100 µM	> 100 µM	> 100 µM	> 100 µM	> 100 µM	> 100 µM		> 100 µM	> 100 µM	> 100 µM	> 100 µM	> 100 µM
COc1ccc(/C=C2\CCC(C)C3C2=NN(c2ccccc2)C3c2ccc(OC)c(OC)c2)cc1OC (stereo not given)	12.2 µM	> 100 µM	14.6 µM	43.3 µM	8.63 µM	6.37 µM	12.3 µM	14.5 µM		6.9 µM	18.5 µM	20.2 µM	12.7 µM	9.74 µM	16.3 µM	12.9 µM		4.3 µM
